Measured values from patent publication US4128638A, “Nona- and deca-peptide amide derivatives demonstrating high ovulation inducing activity” (ICI Australia Limited, priority 1975, dated 1978).
Where a SMILES comes first, the peptide text is derived from it. [ ]: non-standard residue; d: D form. pGlu = O=C1CC[C@@H](C(=O)O)N1

Columns and labels:
[1] = test system: androgen-sterilized, constant-oestrous rats; experiment: Ovulation induction in androgen-sterilized, constant-oestrous rats; format: in vivo; conditions: intravenous dose/rat 0.25 μg
From the text: This activity is exemplified in the table below:

[2] = test system: LH release from the pituitary gland of ovariectomized ewes; experiment: Bioassay for LH release in ovariectomized ewes (plasma LH by radioimmunoassay); format: in vivo; conditions: intravenous injection
Procedure: Each ewe was bled twice by jugular venipuncture before administration of the analogue, to establish basal levels of LH in plasma. Following intravenous injection of the appropriate analogue dissolved in saline solution (1 ml), blood samples were collected at intervals over the next three hours, centrifuged and subjected to radioimmunoassay for LH.

SMILES	Ovulating rats/group [1]	other results
CCNC(=O)[C@@H]1CCCN1C(=O)[C@H](CCCNC(=N)N)NC(=O)[C@H](CC(C)C)NC(=O)CCNC(=O)[C@H](Cc1ccc(O)cc1)NC(=O)[C@H](CO)NC(=O)[C@H](Cc1c[nH]c2ccccc12)NC(=O)[C@H](Cc1c[nH]cn1)NC(=O)[C@@H]1CCC(=O)N1 [β-Ala^6 des-Gly^10 -FHRH ethylamide, L-Pyroglutamyl-L-histidyl-L-tryptophanyl-L-seryl-L-tyrosyl-β-alanyl-L- leucyl-L-arginyl-L-proline N-ethylamide]	3/3	–
CNC(=O)[C@@H]1CCCN1C(=O)[C@H](CCCNC(=N)N)NC(=O)[C@H](CC(C)C)NC(=O)CCNC(=O)[C@H](Cc1ccc(O)cc1)NC(=O)[C@H](CO)NC(=O)[C@H](Cc1c[nH]c2ccccc12)NC(=O)[C@H](Cc1c[nH]cn1)NC(=O)[C@@H]1CCC(=O)N1 [β-Ala^6 -des-Gly^10 -LHRH methylamide, L-Pyroglutamyl-L-histidyl-L-tryptophanyl-L-seryl-L-tyrosyl-β-alanyl-L- leucyl-L-arginyl-L-proline N-methylamide]	3/3	–
CC(C)C[C@H](NC(=O)CCNC(=O)[C@H](Cc1ccc(O)cc1)NC(=O)[C@H](CO)NC(=O)[C@H](Cc1c[nH]c2ccccc12)NC(=O)[C@H](Cc1c[nH]cn1)NC(=O)[C@@H]1CCC(=O)N1)C(=O)N[C@@H](CCCNC(=N)N)C(=O)N1CCC[C@H]1C(=O)NCC(N)=O [Example 1, L-Pyroglutamyl-L-histidyl-L-tryptophanyl-L-seryl-L-tyrosyl-β-alanyl-L- leucyl-L-arginyl-L-prolyl-glycinamide]	–	P* (maximal release of LH by the LHRH analogue at a given dose expressed as a percentage of the LH release by LHRH at the same dose) ([2]; dose 2.5 μg): 97%; P* (maximal release of LH by the LHRH analogue at a given dose expressed as a percentage of the LH release by LHRH at the same dose) ([2]; dose 25 μg): 108%
CC(C)C[C@H](NC(=O)CCNC(=O)[C@H](Cc1ccc(O)cc1)NC(=O)[C@H](CO)NC(=O)[C@H](Cc1c[nH]c2ccccc12)NC(=O)[C@H](Cc1c[nH]cn1)NC(=O)[C@@H]1CCC(=O)N1)C(=O)N[C@@H](CCCNC(=N)N)C(=O)N1CCC[C@H]1C(=O)N1CCCC1 [β-Ala^6 -des-Gly^10 -LHRH pyrrolidide, L-Pyroglutamyl-L-histidyl-L-tryptophanyl-L-seryl-L-tyrosyl-β-alanyl-L- leucyl-L-arginyl-L-proline pyrrolidide]	3/3	–
CC(C)[C@H](NC(=O)[C@@H](C)NC(=O)[C@H](Cc1ccc(O)cc1)NC(=O)[C@H](CO)NC(=O)[C@H](Cc1c[nH]c2ccccc12)NC(=O)[C@H](Cc1c[nH]cn1)NC(=O)[C@@H]1CCC(=O)N1)C(=O)N[C@@H](CCCNC(=N)N)C(=O)N1CCC[C@H]1C(=O)NCC(N)=O [D-Ala^6 -Val^7 -LHRH, L-pyroglutamyl-L-histidyl-L-tryptophanyl-L-seryl-L-tyrosyl-D-alanyl-L-valyl-L-arginyl-L-prolylglycinamide] ([pGlu]HWSY[dA]VRPG-NH2)	3/3	–
CC[C@H](C)[C@H](NC(=O)[C@@H](C)NC(=O)[C@H](Cc1ccc(O)cc1)NC(=O)[C@H](CO)NC(=O)[C@H](Cc1c[nH]c2ccccc12)NC(=O)[C@H](Cc1c[nH]cn1)NC(=O)[C@@H]1CCC(=O)N1)C(=O)N[C@@H](CCCNC(=N)N)C(=O)N1CCC[C@H]1C(=O)NCC(N)=O [D-Ala^6 -Ile^7 -LHRH, L-Pyroglutamyl-L-histidyl-L-tryptophanyl-L-seryl-L-tyrosyl-D-alanyl-L-isoleucyl-L-arginyl-L-prolyl-glycinamide] ([pGlu]HWSY[dA]IRPG-NH2)	3/3	–
CCCNC(=O)[C@@H]1CCCN1C(=O)[C@H](CCCNC(=N)N)NC(=O)[C@H](CC(C)C)NC(=O)CCNC(=O)[C@H](Cc1ccc(O)cc1)NC(=O)[C@H](CO)NC(=O)[C@H](Cc1c[nH]c2ccccc12)NC(=O)[C@H](Cc1c[nH]cn1)NC(=O)[C@@H]1CCC(=O)N1 [β-Ala^6 -des-Gly^10 -LHRH n-propylamide, L-pyroglutamyl-L-histidyl-L-tryptophanyl-L-seryl-L-tyrosyl-β-alanyl-L- leucyl-L-arginyl-L-proline N-n-propylamide]	5/6	–
CC(C)C[C@H](NC(=O)CNC(=O)[C@H](Cc1ccc(O)cc1)NC(=O)[C@H](CO)NC(=O)[C@H](Cc1c[nH]c2ccccc12)NC(=O)[C@H](Cc1c[nH]cn1)NC(=O)[C@@H]1CCC(=O)N1)C(=O)N[C@@H](CCCNC(=N)N)C(=O)N1CCC[C@H]1C(=O)NCCC(N)=O [Example 2, L-Pyroglutamyl-L-histidyl-L-tryptophanyl-L-seryl-L-tyrosylglycyl-L-leucyl-L-arginyl-L-prolyl-β-alaninamide]	–	P* (maximal release of LH by the LHRH analogue at a given dose expressed as a percentage of the LH release by LHRH at the same dose) ([2]; dose 5 μg): 12%; P* (maximal release of LH by the LHRH analogue at a given dose expressed as a percentage of the LH release by LHRH at the same dose) ([2]; dose 50 μg): 75%
CC(C)C[C@H](NC(=O)CNC(=O)[C@H](Cc1ccc(O)cc1)NC(=O)[C@H](CO)NC(=O)[C@H](Cc1c[nH]c2ccccc12)NC(=O)[C@H](Cc1c[nH]cn1)NC(=O)[C@@H]1CCC(=O)N1)C(=O)N[C@@H](CCCNC(=N)N)C(=O)N1CCC[C@H]1C(=O)N(C)CC(N)=O [Example 3, L-Pyroglutamyl-L-histidyl-L-tryptophanyl-L-seryl-L-tyrosylglycyl-L-leucyl-L-arginyl-L-prolysarcosinamide]	–	P* (maximal release of LH by the LHRH analogue at a given dose expressed as a percentage of the LH release by LHRH at the same dose) ([2]; dose 5 μg): 70%; P* (maximal release of LH by the LHRH analogue at a given dose expressed as a percentage of the LH release by LHRH at the same dose) ([2]; dose 50 μg): 45%
